Earlier results in PMC4939794 (Biochemistry, 2015).

In the case of green fluorescent protein [GFP], the CRO maturation half-life (depending on the variant and the conditions) is given as 19 to 83 min, the folding rates (multiphasic, three to five folding rates) is given as 10 to 0.01 s^−1 and the unfolding half-life (water at neutral pH, standard temperature and pressure, estimated) is given as “greater than 1 month”.
